According to patent publication US20090082358A1, “Vanilloid receptor ligands and their use in treatments” (priority 2007, published 2009):

The molecules below were run against T1, human TRPM8 (Homo sapiens, UniProt Q7Z2W7) (assay: Luminescence readout assay for measuring intracellular calcium (aequorin), antagonism of cold buffer activation). Details: CHO cells expressing human TRPM8; activation by cold buffer (<10° C.).
T1 construct: expressed in transfected cells; host or cells: CHO cells, T-REx tetracycline-inducible expression system (Invitrogen), co-transfected with pcDNA3.1 aequorin
Format: cell-based
Experimental: Luminescence readout assay for measuring intracellular calcium. Stable CHO cell lines expressing human TRPM8 were generated using tetracycline inducible T-REx™ expression system from Invitrogen, Inc (Carlsbad, Calif.). […] Twenty four hours before the assay, cells were seeded in 96-well plates and TRP channel expression was induced with 0.5 μg/ml tetracycline.

T1 sequence (Q7Z2W7 whole entry): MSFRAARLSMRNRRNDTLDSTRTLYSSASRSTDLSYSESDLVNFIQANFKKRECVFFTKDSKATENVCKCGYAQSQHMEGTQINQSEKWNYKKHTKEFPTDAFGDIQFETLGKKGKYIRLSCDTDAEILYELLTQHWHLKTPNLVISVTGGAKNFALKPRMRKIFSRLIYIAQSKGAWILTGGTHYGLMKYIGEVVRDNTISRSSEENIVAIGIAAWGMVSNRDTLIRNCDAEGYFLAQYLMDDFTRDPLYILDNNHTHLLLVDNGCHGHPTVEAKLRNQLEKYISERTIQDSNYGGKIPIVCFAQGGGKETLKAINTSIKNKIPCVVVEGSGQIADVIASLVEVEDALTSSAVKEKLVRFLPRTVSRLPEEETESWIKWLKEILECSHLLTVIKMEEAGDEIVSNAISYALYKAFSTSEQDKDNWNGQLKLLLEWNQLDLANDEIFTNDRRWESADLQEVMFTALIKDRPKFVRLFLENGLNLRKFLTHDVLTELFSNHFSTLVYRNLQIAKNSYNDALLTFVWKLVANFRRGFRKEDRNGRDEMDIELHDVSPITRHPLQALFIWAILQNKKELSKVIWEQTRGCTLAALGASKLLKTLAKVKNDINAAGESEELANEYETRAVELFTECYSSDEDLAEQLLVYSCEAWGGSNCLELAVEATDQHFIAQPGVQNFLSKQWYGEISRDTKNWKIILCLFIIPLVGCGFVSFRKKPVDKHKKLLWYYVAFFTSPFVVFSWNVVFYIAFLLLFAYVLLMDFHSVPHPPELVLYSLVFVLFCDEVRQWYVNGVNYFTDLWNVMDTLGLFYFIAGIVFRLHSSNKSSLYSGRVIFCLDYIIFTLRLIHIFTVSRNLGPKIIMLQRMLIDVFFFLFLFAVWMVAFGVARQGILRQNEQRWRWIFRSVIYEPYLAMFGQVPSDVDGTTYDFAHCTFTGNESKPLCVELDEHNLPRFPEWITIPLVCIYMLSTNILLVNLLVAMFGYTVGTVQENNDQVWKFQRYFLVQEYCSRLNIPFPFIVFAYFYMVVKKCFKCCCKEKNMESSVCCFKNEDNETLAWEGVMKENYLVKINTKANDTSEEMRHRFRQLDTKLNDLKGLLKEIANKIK

Structure (SMILES) | IC50
O=C(Nc1cccnc1)N1CCc2nccnc2[C@H]1c1ccc(C(F)(F)F)cc1 [Example 39, (R)—N-(Pyridin-3-yl)-5-(4-(trifluoromethyl)phenyl)-7,8-dihydropyrido[3,4-b]pyrazine-6(5H)-carboxamide] | < 5 µM
C[C@H](NC(=O)N1CCc2cccnc2[C@H]1c1ccc(C(F)(F)F)cc1)c1ccccc1 [Example 24, (R)—N—((S)-1-phenylethyl)-8-(4-(trifluoromethyl)phenyl)-5,6-dihydro-1,7-naphthyridine-7(8H)-carboxamide] | < 5 µM
CCOC(=O)N1C=Cc2cccnc2C1c1ccc(C(F)(F)F)cc1 (stereo not shown) [Example 5, Ethyl 8-(4-(trifluoromethyl)phenyl)-1,7-naphthyridine-7(8H)-carboxylate] | < 5 µM
Cc1noc(C)c1NC(=O)N1CCc2cccnc2[C@H]1c1ccc(C(F)(F)F)cc1 [Example 27, (R)—N-(3,5-dimethylisoxazol-4-yl)-8-(4-(trifluoromethyl)phenyl)-5,6-dihydro-1,7-naphthyridine-7(8H)-carboxamide] | < 5 µM
O=C(Nc1ccccn1)N1CCc2cccnc2[C@H]1c1ccc(C(F)(F)F)cc1 [Example 30, (R)—N-(pyridin-2-yl)-8-(4-(trifluoromethyl)phenyl)-5,6-dihydro-1,7-naphthyridine-7(8H)-carboxamide] | < 5 µM
O=C(Nc1ccc2c(c1)OCO2)N1CCc2cccnc2[C@H]1c1ccc(C(F)(F)F)cc1 [Example 37, (R)—N-(benzo[d][1,3]dioxol-5-yl)-8-(4-(trifluoromethyl)phenyl)-5,6-dihydro-1,7-naphthyridine-7(8H)-carboxamide] | < 5 µM
O=C(NCc1ccccc1)N1CCc2cccnc2[C@H]1c1ccc(C(F)(F)F)cc1 [Example 32, (R)—N-benzyl-8-(4-(trifluoromethyl)phenyl)-5,6-dihydro-1,7-naphthyridine-7(8H)-carboxamide] | < 5 µM
CC(C)NC(=O)N1CCc2nccnc2[C@H]1c1ccc(C(F)(F)F)cc1 [Example 38, (R)—N-Isopropyl-5-(4-(trifluoromethyl)phenyl)-7,8-dihydropyrido[3,4-b]pyrazine-6(5H)-carboxamide] | < 5 µM
O=C(N[C@H]1C[C@H]1c1ccccc1)N1CCc2cccnc2[C@H]1c1ccc(C(F)(F)F)cc1 [Example 36, (R)—N-((1S,2S)-2-phenylcyclopropyl)-8-(4-(trifluoromethyl)phenyl)-5,6-dihydro-1,7-naphthyridine-7(8H)-carboxamide] | < 5 µM
CCOC(=O)N1C=Cc2ncccc2C1c1ccc(C(F)(F)F)cc1 (stereo not shown) [Example 1, Ethyl 5-(4-(trifluoromethyl)phenyl)-1,6-naphthyridine-6(5H)-carboxylate] | < 5 µM
O=C(Nc1ccc(-c2ccccc2)cc1)N1CCc2cccnc2[C@H]1c1ccc(C(F)(F)F)cc1 [Example 31, (R)—N-(4-biphenyl)-8-(4-(trifluoromethyl)phenyl)-5,6-dihydro-1,7-naphthyridine-7(8H)-carboxamide] | < 5 µM
O=C(Nc1cccc(F)c1)N1CCc2cccnc2[C@H]1c1ccc(C(F)(F)F)cc1 [Example 33, (R)—N-(3-fluorophenyl)-8-(4-(trifluoromethyl)phenyl)-5,6-dihydro-1,7-naphthyridine-7(8H)-carboxamide] | < 5 µM
CCOC(=O)N1C=Cc2cccnc2C1c1ccc(F)cc1 (stereo not shown) [Example 44, Ethyl 8-(4-fluorophenyl)-1,7-naphthyridine-7(8H)-carboxylate] | < 5 µM
C[C@@H]1Cc2cccnc2[C@H](c2ccc(C(F)(F)F)cc2)N1C(=O)Nc1ccc(F)cc1 (racemic) [Example 48, (6R,8)-N-(4-Fluorophenyl)-6-methyl-8-(4-(trifluoromethyl)phenyl)-5,6-dihydro-1,7-naphthyridine-7(8H)-carboxamide and (6S,8R)—N-(4-fluorophenyl)-6-methyl-8-(4-(trifluoromethyl)phenyl)-5,6-dihydro-1,7-naphthyridine-7(8H)-carboxamide] | < 5 µM
N#Cc1ccccc1NC(=O)N1CCc2cccnc2[C@H]1c1ccc(C(F)(F)F)cc1 [Example 41, (R)—N-(2-Cyanophenyl)-8-(4-(trifluoromethyl)phenyl)-5,6-dihydro-1,7-naphthyridine-7(8H)-carboxamide] | < 5 µM
C[C@@H](NC(=O)N1CCc2cccnc2[C@H]1c1ccc(C(F)(F)F)cc1)c1ccccc1 [Example 29, (R)—N—((R)-1-phenylethyl)-8-(4-(trifluoromethyl)phenyl)-5,6-dihydro-1,7-naphthyridine-7(8H)-carboxamide] | < 5 µM
O=C(OCc1ccccc1)N1C=Cc2cccnc2C1c1ccc(C(F)(F)F)cc1 (stereo not shown) [Example 43, Benzyl 8-(4-(trifluoromethyl)phenyl)-1,7-naphthyridine-7(8H)-carboxylate] | < 5 µM

Structure (SMILES) | IC50
CC(C)(C)NC(=O)N1CCc2cccnc2[C@H]1c1ccc(C(F)(F)F)cc1 [Example 28, (R)—N-tert-butyl-8-(4-(trifluoromethyl)phenyl)-5,6-dihydro-1,7-naphthyridine-7(8H)-carboxamide] | < 5 µM
O=C(Nc1ccc(F)cc1)N1CCc2cccnc2C1c1ccc(-c2ccccc2)cc1 (stereo not shown) [Example 47, N-(4-Fluorophenyl)-8-(4-biphenyl)-5,6-dihydro-1,7-naphthyridine-7(8H)-carboxamide] | < 5 µM
O=C(Nc1ccc(Cl)cc1)N1CCc2cccnc2[C@H]1c1ccc(C(F)(F)F)cc1 [Example 23, (R)—N-(4-chlorophenyl)-8-(4-(trifluoromethyl)phenyl)-5,6-dihydro-1,7-naphthyridine-7(8H)-carboxamide] | < 5 µM
O=C(NCCc1ccccc1)N1CCc2cccnc2[C@H]1c1ccc(C(F)(F)F)cc1 [Example 22, (R)—N-phenethyl-8-(4-(trifluoromethyl)phenyl)-5,6-dihydro-1,7-naphthyridine-7(8H)-carboxamide] | < 5 µM
N#Cc1cccc(NC(=O)N2CCc3cccnc3[C@H]2c2ccc(C(F)(F)F)cc2)c1 [Example 42, (R)—N-(3-Cyanophenyl)-8-(4-(trifluoromethyl)phenyl)-5,6-dihydro-1,7-naphthyridine-7(8H)-carboxamide] | < 5 µM
C[C@@H]1CN(C(=O)Nc2ccc(F)cc2)[C@H](c2ccc(C(F)(F)F)cc2)c2ncccc21 (racemic) [Example 49, (5S,8R)—N-(4-Fluorophenyl)-5-methyl-8-(4-(trifluoromethyl)phenyl)-5,6-dihydro-1,7-naphthyridine-7(8H)-carboxamide and (5R,8S)—N-(4-fluorophenyl)-5-methyl-8-(4-(trifluoromethyl)phenyl)-5,6-dihydro-1,7-naphthyridine-7(8H)-carboxamide] | < 5 µM
O=C(Nc1ccccc1F)N1CCc2cccnc2[C@H]1c1ccc(C(F)(F)F)cc1 [Example 21, (R)—N-(2-fluorophenyl)-8-(4-(trifluoromethyl)phenyl)-5,6-dihydro-1,7-naphthyridine-7(8H)-carboxamide] | < 5 µM
CN(C)c1ccc(NC(=O)N2CCc3cccnc3[C@H]2c2ccc(C(F)(F)F)cc2)cc1 [Example 25, (R)—N-(4-(dimethylamino)phenyl)-8-(4-(trifluoromethyl)phenyl)-5,6-dihydro-1,7-naphthyridine-7(8H)-carboxamide] | < 5 µM
O=C(Nc1ccc(F)c(F)c1)N1CCc2cccnc2[C@H]1c1ccc(C(F)(F)F)cc1 [Example 26, (R)—N-(3,4-difluorophenyl)-8-(4-(trifluoromethyl)phenyl)-5,6-dihydro-1,7-naphthyridine-7(8H)-carboxamide] | < 5 µM
O=C(Nc1ccc(C(F)(F)F)cc1)N1CCc2cccnc2[C@H]1c1ccc(C(F)(F)F)cc1 [Example 40, (R)—N,8-Bis(4-(trifluoromethyl)phenyl)-5,6-dihydro-1,7-naphthyridine-7(8H)-carboxamide] | < 5 µM
CCOC(=O)N1CCc2cccnc2C1c1ccc(F)cc1 (stereo not shown) [Example 45, Ethyl 8-(4-fluorophenyl)-5,6-dihydro-1,7-naphthyridine-7(8H)-carboxylate] | < 5 µM
CCOC(=O)N1C=Cc2nccnc2C1c1ccc(C(F)(F)F)cc1 (stereo not shown) [Example 12, Ethyl 5-(4-(trifluoromethyl)phenyl)pyrido[3,4-b]pyrazine-6(5H)-carboxylate] | < 5 µM
COc1ccc(NC(=O)N2CCc3cccnc3[C@H]2c2ccc(C(F)(F)F)cc2)cc1 [Example 35, (R)—N-(4-methoxyphenyl)-8-(4-(trifluoromethyl)phenyl)-5,6-dihydro-1,7-naphthyridine-7(8H)-carboxamide] | < 5 µM
O=C(Nc1ccc(F)cc1)N1CCc2c(-c3ccc(F)cc3)ccnc2[C@H]1c1ccc(C(F)(F)F)cc1 [Example 54, (R)—N,4-bis(4-fluorophenyl)-8-(4-(trifluoromethyl)phenyl)-5,6-dihydro-1,7-naphthyridine-7(8H)-carboxamide] | < 5 µM
O=C(Nc1ccc(F)cc1)N1CCc2cccnc2C1c1ccc(F)cc1 (stereo not shown) [Example 46, N,8-Bis(4-fluorophenyl)-5,6-dihydro-1,7-naphthyridine-7(8H)-carboxamide] | < 5 µM
COc1ccccc1NC(=O)N1CCc2cccnc2[C@H]1c1ccc(C(F)(F)F)cc1 [Example 20, (R)—N-(2-methoxyphenyl)-8-(4-(trifluoromethyl)phenyl)-5,6-dihydro-1,7-naphthyridine-7(8H)-carboxamide] | < 5 µM
Cc1ccnc2c1CCN(C(=O)Nc1ccc(F)cc1)[C@@H]2c1ccc(C(F)(F)F)cc1 [Example 55, (R)—N-(4-fluorophenyl)-4-methyl-8-(4-(trifluoromethyl)phenyl)-5,6-dihydro-1,7-naphthyridine-7(8H)-carboxamide] | < 5 µM
